# From ChEMBL document CHEMBL1201862, “PubChem BioAssay data set” (2004)
#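 48-hour exposure; five concentrations; linearly interpolated endpoints. GI50 = concentration required for 50% inhibition of growth.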 Activity calls are given as the source filed them. Rule as the data show it: active = GI50 up to about 1.1 µM and inactive = higher.
# Key:
# Assay in all cases: NCI anticancer screen, dose series, 48 h
# LOX IMVI = tested on: LOX IMVI
# IGROV-1 = tested on: IGROV-1
# SF-295 = tested on: SF-295
# DMS-273 = tested on: DMS-273
# SK-MEL-5 = tested on: SK-MEL-5
# HCC 2998 = tested on: HCC 2998
# OVCAR-8 = tested on: OVCAR-8
# DLD-1 = tested on: DLD-1
# HOP-62 = tested on: HOP-62
# HOP-92 = tested on: HOP-92
# 786-0 = tested on: 786-0
# EKVX = tested on: EKVX
# SNB-19 = tested on: SNB-19
# MOLT-4 = tested on: MOLT-4
# SNB-75 = tested on: SNB-75
# UO-31 = tested on: UO-31
# UACC-62 = tested on: UACC-62
# KM-20L2 = tested on: KM-20L2
# SF-539 = tested on: SF-539
# XF498 = tested on: XF498
# NCI-H23 = tested on: NCI-H23
# COLO 205 = tested on: COLO 205
# HCT-116 = tested on: HCT-116
# NCI-H226 = tested on: NCI-H226
# NCI-H522 = tested on: NCI-H522
# LXFL 529 = tested on: LXFL 529
# HOP-18 = tested on: HOP-18
# M14 = tested on: M14
# M19-MEL = tested on: M19-MEL
# DMS-114 = tested on: DMS-114
# UACC-257 = tested on: UACC-257
# SK-MEL-2 = tested on: SK-MEL-2
# CCRF-CEM = tested on: CCRF-CEM
# RXF 393 = tested on: RXF 393
# RPMI-8226 = tested on: RPMI-8226
# SN12C = tested on: SN12C
# ACHN = tested on: ACHN
# SF-268 = tested on: SF-268
# TK-10 = tested on: TK-10
# A498 = tested on: A498
# SK-MEL-28 = tested on: SK-MEL-28
# HL-60 = tested on: HL-60
# KM12 = tested on: KM12
# A549 = tested on: A549
# U-251 = tested on: U-251
# Malme-3M = tested on: Malme-3M
# SK-OV-3 = tested on: SK-OV-3
# HT-29 = tested on: HT-29
# SR = tested on: SR
# OVCAR-3 = tested on: OVCAR-3
# SW-620 = tested on: SW-620
# K562 = tested on: K562
# SNB-78 = tested on: SNB-78
# OVCAR-5 = tested on: OVCAR-5
# HCT-15 = tested on: HCT-15
# NCI-H460 = tested on: NCI-H460
# OVCAR-4 = tested on: OVCAR-4
compound,measurement,setting,value
Cc1ccc2ccc(-c3ccccc3)c3c2c1C(=O)c1ccccc1C3=O,GI50,LOX IMVI,> 100 µM (inactive)
same,GI50,IGROV-1,> 100 µM (inactive)
same,GI50,SF-295,93.1 µM (inactive)
same,GI50,DMS-273,53.8 µM (inactive)
same,GI50,SK-MEL-5,53.6 µM (inactive)
same,GI50,HCC 2998,> 100 µM (inactive)
same,GI50,OVCAR-8,72.4 µM (inactive)
same,GI50,DLD-1,> 100 µM (inactive)
same,GI50,HOP-62,54.3 µM (inactive)
same,GI50,HOP-92,26.1 µM (inactive)
same,GI50,786-0,36.5 µM (inactive)
same,GI50,EKVX,> 100 µM (inactive)
same,GI50,SNB-19,64.1 µM (inactive)
same,GI50,MOLT-4,> 100 µM (inactive)
same,GI50,SNB-75,18.3 µM (inactive)
same,GI50,UO-31,> 100 µM (inactive)
same,GI50,UACC-62,92.7 µM (inactive)
same,GI50,KM-20L2,> 100 µM (inactive)
same,GI50,SF-539,54.3 µM (inactive)
same,GI50,XF498,15.8 µM (inactive)
same,GI50,NCI-H23,> 100 µM (inactive)
same,GI50,COLO 205,> 100 µM (inactive)
same,GI50,HCT-116,> 100 µM (inactive)
same,GI50,NCI-H226,> 100 µM (inactive)
same,GI50,NCI-H522,36.1 µM (inactive)
same,GI50,LXFL 529,> 100 µM (inactive)
same,GI50,HOP-18,54.6 µM (inactive)
same,GI50,M14,79.8 µM (inactive)
same,GI50,M19-MEL,76.2 µM (inactive)
same,GI50,DMS-114,> 100 µM (inactive)
same,GI50,UACC-257,> 100 µM (inactive)
same,GI50,SK-MEL-2,> 100 µM (inactive)
same,GI50,CCRF-CEM,> 100 µM (inactive)
same,GI50,RXF 393,61 µM (inactive)
same,GI50,RPMI-8226,> 100 µM (inactive)
same,GI50,SN12C,> 100 µM (inactive)
same,GI50,ACHN,58.5 µM (inactive)
same,GI50,SF-268,45.5 µM (inactive)
same,GI50,TK-10,> 100 µM (inactive)
same,GI50,A498,74 µM (inactive)
same,GI50,SK-MEL-28,> 100 µM (inactive)
same,GI50,HL-60,> 100 µM (inactive)
same,GI50,KM12,> 100 µM (inactive)
same,GI50,A549,> 100 µM (inactive)
same,GI50,U-251,> 100 µM (inactive)
same,GI50,Malme-3M,> 100 µM (inactive)
same,GI50,SK-OV-3,41.7 µM (inactive)
same,GI50,HT-29,> 100 µM (inactive)
same,GI50,SR,> 100 µM (inactive)
same,GI50,OVCAR-3,71.8 µM (inactive)
same,GI50,SW-620,> 100 µM (inactive)
same,GI50,K562,> 100 µM (inactive)
same,GI50,SNB-78,> 100 µM (inactive)
same,GI50,OVCAR-5,> 100 µM (inactive)
CC(C)(C)[Si](OC1CC(n2cnc3c(N)ncnc32)OC1CO)(c1ccccc1)c1ccccc1 (configuration not stated),GI50,LOX IMVI,17.7 µM (inactive)
same,GI50,IGROV-1,20.8 µM (inactive)
same,GI50,SF-295,15 µM (inactive)
same,GI50,DMS-273,18.7 µM (inactive)
same,GI50,HCC 2998,67.5 µM (inactive)
same,GI50,OVCAR-8,18.9 µM (inactive)
same,GI50,DLD-1,15.5 µM (inactive)
same,GI50,HOP-62,22.5 µM (inactive)
same,GI50,HOP-92,20.2 µM (inactive)
same,GI50,EKVX,18.4 µM (inactive)
same,GI50,SNB-19,20.2 µM (inactive)
same,GI50,MOLT-4,20.7 µM (inactive)
same,GI50,UO-31,23.7 µM (inactive)
same,GI50,KM-20L2,15.4 µM (inactive)
same,GI50,HCT-15,> 10 µM
same,GI50,NCI-H460,16.3 µM (inactive)
same,GI50,SF-539,20.2 µM (inactive)
same,GI50,XF498,10.4 µM (inactive)
same,GI50,NCI-H23,13.9 µM (inactive)
same,GI50,COLO 205,30.3 µM (inactive)
same,GI50,HCT-116,17.2 µM (inactive)
same,GI50,NCI-H226,12.4 µM (inactive)
same,GI50,NCI-H522,16 µM (inactive)
same,GI50,LXFL 529,34.6 µM (inactive)
same,GI50,HOP-18,67.6 µM (inactive)
same,GI50,M14,34.6 µM (inactive)
same,GI50,M19-MEL,19.7 µM (inactive)
same,GI50,DMS-114,23.7 µM (inactive)
same,GI50,UACC-257,66.5 µM (inactive)
same,GI50,SK-MEL-2,18.8 µM (inactive)
same,GI50,CCRF-CEM,12.9 µM (inactive)
same,GI50,RXF 393,13.4 µM (inactive)
same,GI50,RPMI-8226,14.1 µM (inactive)
same,GI50,SN12C,20.9 µM (inactive)
same,GI50,ACHN,13.6 µM (inactive)
same,GI50,SF-268,16.1 µM (inactive)
same,GI50,TK-10,24.2 µM (inactive)
same,GI50,A498,17.9 µM (inactive)
same,GI50,SK-MEL-28,21.5 µM (inactive)
same,GI50,HL-60,41.4 µM (inactive)
same,GI50,KM12,19.8 µM (inactive)
same,GI50,A549,15.2 µM (inactive)
same,GI50,U-251,17.1 µM (inactive)
same,GI50,Malme-3M,19 µM (inactive)
same,GI50,SK-OV-3,14.9 µM (inactive)
same,GI50,HT-29,16.1 µM (inactive)
same,GI50,SR,14.5 µM (inactive)
same,GI50,OVCAR-3,16.6 µM (inactive)
same,GI50,SW-620,19 µM (inactive)
same,GI50,K562,17.1 µM (inactive)
same,GI50,SNB-78,> 100 µM (inactive)
same,GI50,OVCAR-4,15 µM (inactive)
same,GI50,OVCAR-5,18.6 µM (inactive)
